Experimental data: patent US20260176289A1, “SMALL MOLECULE INHIBITORS OF KRAS PROTEINS” (Merck Sharp & Dohme LLC, priority 2022, published 2026)
Where two headings read alike, the source gives them in different places.

Key:
[1] = target: KRAS-G12D (Homo sapiens, UniProt P01116, G12D); assay: SOS-catalyzed nucleotide exchange assay (Procedure A, TR-FRET), KRAS-G12D; type: biochemical
Method in brief: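 Signal ratio (520/495 nm, excitation 340 nm) reports Bodipy-GDP retention on biotinylated RAS after SOS-catalyzed exchange with 3 mM GTP. SOS was 40 nM, except 160 nM for G12V. Room-temperature exchange lasted 60 min (90 min for G12V), following a 60 min compound preincubation.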

[2] = system: AsPC-1 cells; assay: Cellular phospho-ERK assay, AsPC-1 cells (homozygous KRAS-G12D); type: cell-based; details: Homo sapiens, read-out: AsPC1 pERK IC50
Method in brief: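 Cells seeded at 10,000-15,000 per well were incubated overnight, then exposed to compound for 2 hours at 37 °C in a 10-point, 1:3 series topping at 30 μM final. Lysates were assayed by Alpha SureFire Ultra multiplex for p-ERK and total ERK; IC50 came from a 4-parameter logistic fit of their ratio.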

[3] = target: KRAS-G12V (Homo sapiens, UniProt P01116, G12V); assay: SOS-catalyzed nucleotide exchange assay (Procedure A, TR-FRET), KRAS-G12V; type: biochemical
Method in brief: (§1)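 RAS (G12C carries C51S/C80L/C118S) loaded with Bodipy-GDP, complexed with Tb-streptavidin; cpd 60 min RT; + SOS/3 mM GTP. G12C 3/40 nM, WT 1/40, NRAS 1.25/40 nM RAS/SOS, 60 min; G12V 1.25/160 nM, 90 min. Normalized to DMSO and saturating inhibitor; 4PL fit.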

[4] = target: KRAS-WT (Homo sapiens, UniProt P01116); assay: SOS-catalyzed nucleotide exchange assay (Procedure A, TR-FRET), KRAS-WT; type: biochemical
Method in brief: as §1

[5] = KRAS G12D GNE IC50, nucleotide exchange
[6] = KRAS G12V GNE IC50, nucleotide exchange
[7] = nucleotide exchange, read-out: KRAS WT GNE IC50
[8] = nucleotide exchange, read-out: KRAS G12D GNE IC50
[9] = nucleotide exchange, read-out: KRAS G12V GNE IC50
[10] = ASPC1, 2 h, 2 hours compound incubation
[11] = ASPC1, 2 hours compound incubation
[12] = KRAS WT GNE IC50, nucleotide exchange

KRAS-WT, sequence (P01116 with tags, fused parts or gaps isoform P01116-2): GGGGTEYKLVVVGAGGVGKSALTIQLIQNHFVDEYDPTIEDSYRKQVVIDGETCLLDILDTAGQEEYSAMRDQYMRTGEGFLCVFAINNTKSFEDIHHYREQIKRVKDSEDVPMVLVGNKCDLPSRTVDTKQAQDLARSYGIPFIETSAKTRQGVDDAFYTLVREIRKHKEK
KRAS-G12V, sequence (P01116 with tags, fused parts or gaps isoform P01116-2 G12V): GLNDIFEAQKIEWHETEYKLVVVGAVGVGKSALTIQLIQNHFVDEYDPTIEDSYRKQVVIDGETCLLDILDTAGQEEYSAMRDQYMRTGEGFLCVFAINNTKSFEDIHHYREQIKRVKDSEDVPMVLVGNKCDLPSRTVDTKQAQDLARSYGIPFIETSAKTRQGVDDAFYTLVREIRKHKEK
KRAS-G12D, sequence (P01116 with tags, fused parts or gaps isoform P01116-2 G12D): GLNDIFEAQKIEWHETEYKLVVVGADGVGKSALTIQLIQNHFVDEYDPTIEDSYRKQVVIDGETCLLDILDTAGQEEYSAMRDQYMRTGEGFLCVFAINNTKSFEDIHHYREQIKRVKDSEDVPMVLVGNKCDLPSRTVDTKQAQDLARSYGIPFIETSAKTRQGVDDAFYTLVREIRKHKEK

SMILES | IC50 [1, 5] | IC50 ([2]; ASPC1, KRAS-G12D, 2 hours) | IC50 [3, 6] | IC50 [4, 7] | IC50 [1, 8] | IC50 ([2]; ASPC1, 2 h, KRAS-G12D, 2 hours) | IC50 [3, 9] | IC50 [2, 10] | IC50 [2, 11] | IC50 [4, 12]
C[C@@]1(O)COCCN(c2nc(OC[C@@]34CCCN3C[C@H](F)C4)nc3sc4c(-c5cccc(Cl)c5[Si](C)(C)C)nccc4c23)C1 [Ex-123, (S)-4-(8-(3-chloro-2-(trimethylsilyl)phenyl)-2-(((2R,7aS)-2-fluorotetrahydro-1H-pyrrolizin-7a(5H)-yl)methoxy)pyri-do[4′,3′:4,5]thieno[2,3-d]pyrimidin-4-yl)-6-methyl-1,4-oxazepan-6-ol] | 173 nM | 2060 nM | 157 nM | 434 nM | – | – | – | – | – | –
C[C@@]1(O)COCCN(c2nc(OC[C@@]34CCCN3C[C@H](F)C4)nc3sc4c(-c5cc(O)cc(Cl)c5C5CC5)nccc4c23)C1 [Ex-124, (S)-4-(8-(3-chloro-2-cyclopropyl-5-hydroxyphenyl)-2-(((2R,7aS)-2-fluorotetrahydro-1H-pyrrolizin-7a(5H)-yl)methoxy)pyri-do[4′,3′:4,5]thieno[2,3-d]pyrimidin-4-yl)-6-methyl-1,4-oxazepan-6-ol] | – | – | – | 39.4 nM | 11.1 nM | 151 nM | 24.1 nM | – | – | –
CN1CCc2cc3[nH]ncc3c(-c3nccc4c3sc3nc(OC[C@@]56CCCN5C[C@H](F)C6)nc(N5CCOC[C@@](C)(O)C5)c34)c21 [Ex-125, (6S)-4-(2-(((2R,7aS)-2-fluorotetrahydro-1H-pyrrolizin-7a(5H)-yl)methoxy)-8-(5-methyl-1,5,6,7-tetrahydropyrrolo[2,3-f]indazol-4-yl)pyrido[4′,3′:4,5]thieno[2,3-d]pyrimidin-4-yl)-6-methyl-1,4-oxazepan-6-ol] | – | – | – | 161 nM | 66 nM | 1030 nM | 94 nM | – | – | –
C=CC(F)(F)c1c(C)cc2[nH]ncc2c1-c1nccc2c1sc1nc(OC[C@@]34CCCN3C[C@H](F)C4)nc(N3CCOC[C@@](C)(O)C3)c12 [Ex-152, (6S)-4-(8-(5-(1,1-difluoroallyl)-6-methyl-1H-indazol-4-yl)-2-(((2R,7aS)-2-fluorotetrahydro-1H-pyrrolizin-7a(5H)-yl)methoxy)pyrido[4′,3′:4,5]thieno[2,3-d]pyrimidin-4-yl)-6-methyl-1,4-oxazepan-6-ol] | – | – | – | 195 nM | 76.9 nM | – | 106 nM | 636 nM | – | –
C#CC(F)(F)c1c(C)cc2[nH]ncc2c1-c1nccc2c1sc1nc(OC[C@@]34CCCN3C[C@H](F)C4)nc(N3CCOC[C@@](C)(O)C3)c12 [Ex-153, (6S)-4-(8-(5-(1,1-difluoroprop-2-yn-1-yl)-6-methyl-1H-indazol-4-yl)-2-(((2R,7aS)-2-fluorotetrahydro-1H-pyrrolizin-7a(5H)-yl)methoxy)pyrido[4′,3′:4,5]thieno[2,3-d]pyrimidin-4-yl)-6-methyl-1,4-oxazepan-6-ol] | – | – | – | 322 nM | 123 nM | – | 215 nM | – | 1640 nM | –
C[C@@]1(O)COCCN(c2nc(OC[C@@]34CCCN3C[C@H](F)C4)nc3sc4c(-c5c(C(F)(F)F)c(C(F)F)cc6[nH]ncc56)nccc4c23)C1 [Ex-155, (6S)-4-(8-(6-(difluoromethyl)-5-(trifluoromethyl)-1H-indazol-4-yl)-2-(((2R,7aS)-2-fluorotetrahydro-1H-pyrrolizin-7a(5H)-yl)methoxy)pyrido[4′,3′:4,5]thieno[2,3-d]pyrimidin-4-yl)-6-methyl-1,4-oxazepan-6-ol] | – | – | – | 350 nM | 158 nM | – | 211 nM | 927 nM | – | –
Cc1cc2cnn(C)c2c(-c2nccc3c2sc2nc(OC[C@@]45CCCN4C[C@H](F)C5)nc(N4CCOC[C@@](C)(O)C4)c23)c1C(F)(F)F [Ex-157, (6S)-4-(8-(1,5-dimethyl-6-(trifluoromethyl)-1H-indazol-7-yl)-2-(((2R,7aS)-2-fluorotetrahydro-1H-pyrrolizin-7a(5H)-yl)methoxy)pyrido[4′,3′:4,5]thieno[2,3-d]pyrimidin-4-yl)-6-methyl-1,4-oxazepan-6-ol] | – | – | – | 9650 nM | 288 nM | – | 4230 nM | 1310 nM | – | –
C[C@@]1(O)COCCN(c2nc(OC[C@@]34CCCN3C[C@H](F)C4)nc3sc4c(-c5c6ccccc6cc6[nH]ncc56)nccc4c23)C1 [Ex-170, (6S)-4-(8-(1H-benzo[f]indazol-4-yl)-2-(((2R,7aS)-2-fluorotetrahydro-1H-pyrrolizin-7a(5H)-yl)methoxy)pyrido[4′,3′:4,5]thieno[2,3-d]pyrimidin-4-yl)-6-methyl-1,4-oxazepan-6-ol] | – | – | – | 89.6 nM | 32.9 nM | – | 33.4 nM | 219 nM | – | –
C[C@@]1(O)COCCN(c2nc(OC[C@@]34CCCN3C[C@H](F)C4)nc3sc4c(-c5c6cc(F)ccc6cc6[nH]ncc56)nccc4c23)C1 [Ex-172, (6S)-4-(8-(6-fluoro-1H-benzo[f]indazol-4-yl)-2-(((2R,7aS)-2-fluorotetrahydro-1H-pyrrolizin-7a(5H)-yl)-methoxy)pyrido[4′,3′: 4,5]thieno[2,3-d]pyr-imidin-4-yl)-6-methyl-1,4-oxazepam-6-ol] | 34.1 nM | – | 49.2 nM | – | – | – | – | – | 252 nM | 72.4 nM
C[C@@]1(O)COCCN(c2nc(OC[C@@]34CCCN3C[C@H](F)C4)nc3sc4c(-c5c6c(cc7[nH]ncc57)CCC6=C(F)F)nccc4c23)C1 [Ex-177, (6S)-4-(8-(5-(difluoro-methylene)-1,5,6,7-tetrahydrocyclopenta [f]indazo1-4-yl)-2-(((2R,7aS)-2-fluoro-tetrahydro-1H-pyr-rolizin-7a(5H)-yl)-methoxy)pyrido[4′,3′: 4,5]thieno[2,3-d]pyr-imidin-4-yl)-6-methyl-1,4-oxazepam-6-ol] | 23.1 nM | – | 61.7 nM | – | – | – | – | – | 248 nM | 77.4 nM
Cc1cc2[nH]ncc2c(-c2nccc3c2sc2nc(OC[C@@]45CCCN4C[C@H](F)C5)nc(NCC4COC4)c23)c1C(F)(F)F [Ex-186, 2-(((2R,7aS)-2-fluorotetra-hydro-1H-pyrrolizin-7a(5H)-yl)methoxy)-8-(6-methyl-5-(trifluorometh-yl)-1H-indazol-4-yl)-N-(oxetan-3-ylmethyl)pyrido [4′,3′:4,5]thieno[2,3-d] pyrimidin-4-amine] | – | – | – | 980 nM | 409 nM | – | 436 nM | 2490 nM | – | –
Cc1cc2[nH]ncc2c(-c2nccc3c2sc2nc(OC[C@@]45CCCN4C[C@H](F)C5)nc(N4CCCC5(CC(=O)N5)C4)c23)c1C(F)(F)F (stereo partly drawn) [Ex-195, 6-(2-(((2R,7aS)-2-fluoro-tetrahydro-1H-pyrrolizin-7a(5H)-yl)methoxy)-8-(6-methyl-5-(trifluorometh-yl)-1H-indazol-4-yl)pyrido [4′,3′:4,5]thieno[2,3-d]pyrimidin-4-yl)-1,6-diaza-spiro[3.5]nonan-2-one] | – | – | – | 251 nM | 76.7 nM | – | 77.9 nM | 7560 nM | – | –
Cc1cc2[nH]ncc2c(-c2nccc3c2sc2nc(OC[C@@]45CCCN4C[C@H](F)C5)nc(N4CCC[C@@]5(CNC(=O)O5)C4)c23)c1C(F)(F)F [Ex-196, (5R)-7-(2-(((2R,7aS)-2-fluorotetrahydro-1H-pyr-rolizin-7a(5)-yl)methoxy)-8-(6-methyl-5-(trifluoro-methyl)-1H-indazol-4-yl)-pyrido[4′,3′:4,5]thieno[2,3-d]pyrimidin-4-yl)-1-oxa-3,7-diazaspiro[4.5]decan-2-one] | – | – | – | 35.8 nM | 8.06 nM | – | 19.4 nM | 1870 nM | – | –
Cc1cc2[nH]ncc2c(-c2nccc3c2sc2nc(OC[C@@]45CCCN4C[C@H](F)C5)nc(N4CCC[C@]5(CCO5)C4)c23)c1C(F)(F)F [Ex-200] | – | – | – | 474 nM | 141 nM | – | 92.9 nM | 613 nM | – | –
Cc1cc2[nH]ncc2c(-c2nccc3c2sc2nc(OC[C@@]45CCCN4C[C@H](F)C5)nc(N4CCOCC(O)(CF)C4)c23)c1C(F)(F)F (stereo partly drawn) [Ex-202, 6-(fluoromethyl)-4-(2-(((2R,7aS)-2-fluorotetra-hydro-1H-pyrrolizin-7a(5H)-yl)methoxy)-8-(6-methyl-5-(trifluoro-methyl)-1H-indazol-4-yl)-pyrido[4′,3′:4,5]thieno [2,3-d]pyrimidin-4-yl)-1,4-oxazepan-6-ol] | – | – | – | 292 nM | 97.5 nM | – | 229 nM | 701 nM | – | –
Cc1cc2[nH]ncc2c(-c2nccc3c2sc2nc(O[C@@H](C)[C@@H]4CCCN4C)nc(N4CCOC[C@@](C)(O)C4)c23)c1C(F)(F)F [Ex-204, (6S)-6-methyl-4-(8-(6-methyl-5-(trifluoromethyl)-1H-indazol-4-yl)-2-((S)-1-((S)-1-methylpyrrolidin-2-yl)ethoxy)pyrido[4′,3′:4,5]thieno[2,3-d]pyrimidin-4-yl)-1,4-oxazepan-6-ol] | – | – | – | 936 nM | 339 nM | – | 239 nM | 2310 nM | – | –
